# Data: US11879013B2, “Combination therapies with bispecific anti-EGFR/c-Met antibodies and third generation EGFR tyrosine kinase inhibitors” (Janssen Biotech, Inc., priority 2019, dated 2024)
# Experiments:
# H1975-HGF xenografts = assay: Antitumor activity in H1975-HGF human lung carcinoma xenograft model; format: in vivo, female athymic nude mice; details: for TGI as compared to controls: Day 28, 10 mg/kg each agent, TKI po qd x 21, JNJ-372 ip biwk x 3
# [1] = Body weight and clinical signs of nude mice bearing H1975 xenografts; format: in vivo, female athymic nude mice; details: for body weight change compared to the control group: H1975-xenograft-bearing nude mice, 10 mg/kg, JNJ-372 at Day 29, TKI-containing groups p<0.05; for day of euthanasia due to negative clinical signs / animals euthanized due to negative clinical signs: H1975 study; for animals euthanized due to negative clinical signs: n=10/group, unclear whether due to tumor burden or treatment
# Protocol: (§1) Female athymic nude mice were used in the studies (n=10/group). Treatment began when SC tumors reached approximately 100 to 300 mm^3 in size. and dosing was initiated according to the treatment plan summarized in Table 2. […] The control group was dosed with vehicle orally daily for 21 days, and the isotype control antibody was dosed twice a week IP for 3 weeks. Mice were monitored for body weight and tumor volume up to Day 95, and were euthanized when individual tumor volume reached 2,000 mm^3 or at study conclusion.
# (§2) Relative body weight of individual mice was calculated using the formula: (W/W0)×100, where ‘W’ represents body weight on a particular day, and ‘W0’ represents body weight at initiation of treatment. Body weight was graphically represented as mean % of initial body weight±SEM.
# Statistical significance was evaluated for all pairwise comparisons on the last day of the study when at least eight mice remained in each group. Differences between groups were considered significant when p≤0.05. Statistical significance of tumor volume and body weight was calculated using the Linear Mixed-Effects analysis in R software version 3.4.2 (using Janssen's internally developed Shiny application version 3.3), with treatment and time as fixed effects and animal as random effect. Logarithmic transformation (base 10) was performed if individual longitudinal response trajectories were not linear. The information derived from this model was used to make pairwise treatment comparisons to the control group or between all the treatment groups.
# [2] = Body weight and clinical signs of nude mice bearing H1975-HGF xenografts; format: in vivo, female athymic nude mice; details: for body weight change compared to the control group: H1975-HGF-tumor-bearing mice, 10 mg/kg, JNJ-372 at Day 28, TKI-containing groups p<0.05; for day found dead or euthanized / mice found dead or euthanized due to negative clinical signs: H1975-HGF study; for mice found dead or euthanized due to negative clinical signs: n=10/group, unclear whether due to tumor burden or treatment
# Protocol: as §1, §2
# Tumor volume and body weight data were graphically represented using Prism software (GraphPad, version 7). Statistical significance was evaluated for all pairwise comparisons on the last day of the study when at least eight mice remained in each group. Differences between groups were considered significant when p≤0.05. […] Logarithmic transformation (base 10) was performed if individual longitudinal response trajectories were not linear. The information derived from this model was used to make pairwise treatment comparisons to the control group or between all the treatment groups.
# The experimental design was as described in Example 1 except that H1975 cells stably transfected to express hepatocyte growth factor (HGF) (H1975-HGF cells) were used in the studies and hereafter referred to as H1975-HGF-CNT.
# EGFR-mutated NSCLC = assay: FIH dose escalation study of lazertinib monotherapy; format: in vivo, human
# Protocol: The safety profile and preliminary efficacy of both agents in EGFR-mutated NSCLC population is based upon clinical experience of approximately 100 subjects in each study, including those enrolled into expansion cohorts at their respective RP2D.
# In the current monotherapy dosing regimen, lazertinib is administered as a daily oral therapy, while JNJ-61186372 is administered intravenously weekly during Cycle 1, and then every other week thereafter, beginning with Cycle 2 Day 1.
# [3] = test system: H1975 human lung xenografts; assay: Antitumor activity in H1975 human lung carcinoma xenograft model; details: for TGI as compared to controls: Day 28, 10 mg/kg each agent, TKI po qd x 21, JNJ-372 ip biwk x 3
# Protocol: The animals were fed ad libitum water (reverse osmosis, 1 ppm Cl) and NIH 31 Modified and Irradiated Lab Diet® consisting of 18.0% crude protein, 5.0% crude fat, and 5.0% crude fiber. The mice were housed on irradiated Enrich-o'Cobs™ Laboratory Animal Bedding in static microisolators on a 12-hour light cycle at 20-22° C. (68-72° F.) and at 40-60% humidity. All studies complied with the recommendations of the Guide for Care and Use of Laboratory Animals with respect to restraint, husbandry, surgical procedures, feed and fluid regulation, and veterinary care.
# NCI-H1975 cells were grown to mid-log phase in RPMI 1640 medium containing 10% fetal bovine serum, 2 mM glutamine, 100 units/mL sodium penicillin G, 25 μg/mL gentamicin, and 100 μg/mL streptomycin sulfate. The tumor cells were cultured in tissue culture flasks in a humidified incubator at 37° C., in an atmosphere of 5% CO2 and 95% air.
# On the day of implant, the NCI-H1975 cells were harvested during log phase growth and resuspended in phosphate buffered saline (PBS) at a concentration of 5×10^7 cells/mL. Xenografts were initiated by subcutaneously implanting 5×10^6 NCI-H1975 cells per animal (0.1 mL suspension) into the right flank of each test animal and tumors were monitored as their volumes approached the target range of 150-200 mm^3. Fifteen days later, animals were sorted into bins by calculated tumor volumes based on vernier caliper measurements of tumor width and length to the nearest mm. The animals were then heuristically sorted among treatment groups, balancing the distribution of small to large sized tumor volumes among group assignments. […] Tumor size, in mm3, was calculated using the following formula: Tumor Volume=(w^2×l)/2 where w=width and l=length, in mm, of the tumor. […]
# Female athymic nude mice were used in the studies (n=10/group). […] Mice were monitored for body weight and tumor volume up to Day 95, and were euthanized when individual tumor volume reached 2,000 mm^3 or at study conclusion.
# Tumor volume data were graphically represented as the mean tumor volume±SEM. Tumor volume was calculated using the formula: tumor volume (mm^3)=(D×d2)/2; where ‘D’ represents the larger diameter, and ‘d’ the smaller diameter of the tumor as determined by caliper measurements.
# The % TGI was defined as the difference between mean tumor burden of the treated and control group, calculated as % ΔTGI=([(TVc−TVc0)−(TVt−TVt0)]/(TVc−TVc0))×100 where ‘TVc’ is the mean tumor burden of a given control group, ‘TVc0’ is the mean initial tumor burden of a given control group, ‘TVt’ is the mean tumor burden of the treated group, and ‘TVt0’ is the mean initial tumor burden of the treated group.
# mouse EGFR = mouse EGFR (Mus musculus, UniProt Q01279); assay: Binding of JNJ-372 to mouse EGFR
# mouse c-Met = mouse c-Met (Mus musculus, UniProt P16056); assay: Binding of JNJ-372 to mouse c-Met
# [4] = n=10/group, 10 mg/kg each agent
# mouse c-Met, sequence (P16056 25-1379): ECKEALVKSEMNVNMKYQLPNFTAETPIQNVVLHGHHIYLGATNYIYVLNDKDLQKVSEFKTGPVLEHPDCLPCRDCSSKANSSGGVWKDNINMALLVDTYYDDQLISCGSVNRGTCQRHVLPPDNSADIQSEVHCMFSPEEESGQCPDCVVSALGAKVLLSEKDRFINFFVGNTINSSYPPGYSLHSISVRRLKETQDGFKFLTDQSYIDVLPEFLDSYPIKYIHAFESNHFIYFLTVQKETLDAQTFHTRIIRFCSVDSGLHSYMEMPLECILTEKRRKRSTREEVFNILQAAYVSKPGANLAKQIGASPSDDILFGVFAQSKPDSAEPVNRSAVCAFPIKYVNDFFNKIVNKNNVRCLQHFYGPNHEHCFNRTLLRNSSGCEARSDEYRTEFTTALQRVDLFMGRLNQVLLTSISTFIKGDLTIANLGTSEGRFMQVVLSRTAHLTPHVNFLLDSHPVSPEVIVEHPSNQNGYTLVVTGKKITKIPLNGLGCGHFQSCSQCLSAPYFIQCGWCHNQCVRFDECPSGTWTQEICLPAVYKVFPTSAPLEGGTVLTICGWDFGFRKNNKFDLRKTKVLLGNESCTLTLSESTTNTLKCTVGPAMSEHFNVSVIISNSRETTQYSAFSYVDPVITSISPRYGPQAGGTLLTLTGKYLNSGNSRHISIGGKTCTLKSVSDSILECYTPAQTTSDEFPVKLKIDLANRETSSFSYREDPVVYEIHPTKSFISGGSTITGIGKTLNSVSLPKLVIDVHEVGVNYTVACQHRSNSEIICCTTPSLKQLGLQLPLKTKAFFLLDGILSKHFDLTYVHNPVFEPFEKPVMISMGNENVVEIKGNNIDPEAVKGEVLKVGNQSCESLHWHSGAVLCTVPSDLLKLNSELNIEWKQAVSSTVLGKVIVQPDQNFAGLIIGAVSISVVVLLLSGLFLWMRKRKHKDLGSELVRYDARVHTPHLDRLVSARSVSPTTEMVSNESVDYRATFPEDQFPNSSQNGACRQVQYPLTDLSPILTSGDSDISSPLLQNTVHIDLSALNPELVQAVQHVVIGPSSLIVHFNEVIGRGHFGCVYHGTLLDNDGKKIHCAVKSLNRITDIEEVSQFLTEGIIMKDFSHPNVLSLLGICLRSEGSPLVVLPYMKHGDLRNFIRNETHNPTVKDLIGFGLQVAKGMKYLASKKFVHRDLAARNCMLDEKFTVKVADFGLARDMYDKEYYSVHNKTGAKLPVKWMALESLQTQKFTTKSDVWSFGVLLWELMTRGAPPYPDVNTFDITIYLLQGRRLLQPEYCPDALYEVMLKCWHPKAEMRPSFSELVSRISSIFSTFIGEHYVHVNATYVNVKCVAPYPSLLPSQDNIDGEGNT
Molecule,TGI as compared to controls (H1975-HGF xenografts) [%],CRs (complete tumor regression) (H1975-HGF xenografts; [4]),body weight change compared to the control group [1],day of euthanasia due to negative clinical signs [1] [days],animals euthanized due to negative clinical signs [1],body weight change compared to the control group [2],dose from which clinical activity in the targeted population was demonstrated (EGFR-mutated NSCLC; EGFR-mutated NSCLC) [mg],DLTs (EGFR-mutated NSCLC; through doses up to 320 mg),TGI as compared to controls [3] [%],"CRs (complete tumor regression, tumor not measurable on last day of analysis) [3, 4]",day found dead or euthanized [2] [days],mice found dead or euthanized due to negative clinical signs [2],binding to mouse EGFR (mouse EGFR),binding to mouse c-Met (mouse c-Met)
"C=CC(=O)Nc1cc(Nc2nccc(-n3cc(CN(C)C)c(-c4ccccc4)n3)n2)c(OC)cc1N1CCOCC1 [Lazertinib, N-(5-(4-(4-((dimethylamino)methyl)-3-phenyl-1H-pyrazol-1-yl)pyrimidin-2-ylamino)-4-methoxy-2-morpholinophenyl)acrylamide]",75,2 of 10,some transient body weight loss,21,One,some transient body weight loss,240,no DLTs were observed,112,1 of 10,–,–,–,–
"C=CC(=O)Nc1cc(Nc2nccc(-c3cn(C)c4ccccc34)n2)c(OC)cc1N(C)CCN(C)C [Osimertinib, reference compound]",57,–,some transient body weight loss,–,–,some transient body weight loss,–,–,111,–,51,One,–,–
JNJ-372,70,–,did not elicit significant body weight loss,43,One,did not elicit significant body weight loss,–,–,86,–,53,One,does not bind,does not bind
